According to patent US8470867B2, “Sigma receptor inhibitors” (Laboratorios Del Dr. Esteve, S.A., priority 2004, dated 2013):
Where a name gives a salt, the structure may show the parent alone.

Molecular target: T1, σ1-receptor (Cavia porcellus, UniProt Q60492)
T1 construct: guinea pig brains were homogenized; from tissue; host or cells: guinea pig brain membranes
Assay: Sigma-1 receptor binding, [3H](+)-pentazocine, brain membranes
Parameters: species or system guinea pig
Details: not given
Method: Brain membrane preparation and binding assays for the σ1-receptor were performed as described (DeHaven-Hudkins et al., 1992) with some modifications. In brief, guinea pig brains were homogenized in 10 vols. (w/v) of Tris-HCl 50 mM 0.32 M sucrose, pH 7.4, with a Kinematica Polytron PT 3000 at 15000 r.p.m. for 30 s. The homogenate was centrifuged at 1000 g for […] at 4° C. and the supernatants collected and centrifuged again at 48000 g for 15 min at 4° C. The pellet was resuspended in 10 volumes of Tris-HCl buffer (50 mM, pH 7.4), incubated at 37° C. for 30 min, and centrifuged at 48000 g for 20 min at 4° C. Following this, the pellet was resuspended in fresh Tris-HCl buffer (50 mM, pH 7.4) and stored on ice until use.
Each assay tube contained 10 μL of [^3H](+)-pentazocine (final concentration of 0.5 nM), 900 μL of the tissue suspension to a final assay volume of 1 mL and a final tissue concentration of approximately 30 mg tissue net weight/mL. […] All tubes were incubated at 37° C. for 150 min before termination of the reaction by rapid filtration over Schleicher & Schuell GF 3362 glass fibre filters [previously soaked in a solution of 0.5% polyethylenimine for at least 1 h]. Filters were then washed with four times with 4 mL of cold Tris-HCl buffer (50 mM, pH 7.4). Following addition of scintillation cocktail, the samples were allowed to equilibrate overnight. The amount of bound radioactivity was determined by liquid scintillation spectrometry using a Wallac Winspectral 1414 liquid scintillation counter. Protein concentrations were determined by the method of Lowry et al. (1951).

T1 sequence (Q60492 whole entry): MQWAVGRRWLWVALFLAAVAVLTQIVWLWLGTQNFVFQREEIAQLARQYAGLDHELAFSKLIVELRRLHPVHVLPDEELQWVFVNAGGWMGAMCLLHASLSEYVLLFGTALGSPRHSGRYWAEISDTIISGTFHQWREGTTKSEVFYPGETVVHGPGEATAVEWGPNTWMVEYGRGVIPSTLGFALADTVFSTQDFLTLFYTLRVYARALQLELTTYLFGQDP

Compound	Ki
Cc1cc(OCCCCN2CCCC2)nn1-c1ccc(Cl)c(Cl)c1 [Example 23, 1-(3,4-Dichlorophenyl)-5-methyl-3-[4-(pyrrolidin-1-yl)butoxy]-1H-pyrazole]	4.4 nM
CCN(CC)CCCCOc1cc(C)n(-c2ccc(Cl)c(Cl)c2)n1 [Example 27, 4-[1-(3,4-Dichlorophenyl)-5-methyl-1H-pyrazol-3-yloxy]-N,N-diethylbutan-1-amine]	4.1 nM
CC(C)c1cc(OCCN2CCCCC2)nn1-c1ccc(Cl)c(Cl)c1 [Example 35, 1-{2-[1-(3,4-Dichlorophenyl)-5-isopropyl-4H-pyrazol-3-yloxy]ethyl}piperidine]	8.6 nM

Same assay, conditions: 10^−7 M

Compound	inhibition at 0.1 µM	% Binding σ1
CCN(CC)CCOc1cc(C)n(-c2ccc(Cl)c(Cl)c2)n1 [Example 2, 2-[1-(3,4-Dichlorophenyl)-5-methyl-1H-pyrazol-3-yloxy]-N,N-diethylethanamine hydrochloride]	95.1%	–
Cc1cc(OCCN2CCCC2)nn1-c1ccc(Cl)c(Cl)c1.Cl [Example 3, 1-(3,4-Dichlorophenyl)-5-methyl-3-[2-(pyrrolidin-1-yl)ethoxy]-1H-pyrazole hydrochloride]	102%	–
Cc1cc(OCCCN2CCCC2)nn1-c1ccc(Cl)c(Cl)c1.Cl [Example 4, 1-(3,4-Dichlorophenyl)-5-methyl-3-[3-(pyrrolidin-1-yl)propoxy]-1H-pyrazole hydrochloride]	98%	–
Cc1cc(OCCN2CCCCC2)nn1-c1ccc(Cl)c(Cl)c1 [Example 5, 1-{2-[1-(3,4-dichlorophenyl)-5-methyl-1H-pyrazol-3-yloxy]ethyl}piperidine]	108%	–
Cc1cc(OCCN2CCC(n3cnc4cccnc43)CC2)nn1-c1ccc(Cl)c(Cl)c1 [Example 7, 3-{1-[2-(1-(3,4-Dichlorophenyl)-5-methyl-1H-pyrazol-3-yloxy)ethyl]piperidin-4-yl}-3H-imidazo[4,5-b]pyridine]	94.4%	–
Cc1cc(OCCN2CCN(C)CC2)nn1-c1ccc(Cl)c(Cl)c1 [Example 8, 1-{2-[1-(3,4-Dichlorophenyl)-5-methyl-1H-pyrazol-3-yloxy]ethyl}-4-methylpiperazine]	94.5%	–
CCOC(=O)N1CCN(CCOc2cc(C)n(-c3ccc(Cl)c(Cl)c3)n2)CC1 [Example 9, Ethyl 4-{2-[1-(3,4-dichlorophenyl)-5-methyl-1H-pyrazol-3-yloxy]ethyl}piperazine carboxylate]	99.5%	–
COc1ccc(-n2nc(OCCCN3CCCC3)cc2C)cc1 [Example 13, 1-(4-Methoxyphenyl)-5-methyl-3-[3-(pyrrolidin-1-yl)propoxy]-1H-pyrazole]	50.9%	–
COc1ccc(-n2nc(OCCN3CCCCC3)cc2C)cc1 [Example 14, 1-[2-(1-(4-Methoxyphenyl)-5-methyl-1H-pyrazol-3-yloxy)ethyl]piperidine]	48.9%	–
Cl.Clc1ccc(-n2nc(OCCN3CCOCC3)cc2-c2ccccc2)cc1Cl [Example 16, 4-{2-[1-(3,4-Dichlorophenyl)-5-phenyl-1H-pyrazol-3-yloxy]ethyl}morpholine hydrochloride]	46.5%	–
Clc1ccc(-n2nc(OCCCN3CCCC3)cc2-c2ccccc2)cc1Cl [Example 18, 1-(3,4-Dichlorophenyl)-5-phenyl-3-[3-(pyrrolidin-1-yl)propoxy]-1H-pyrazole]	58.6%	–
Clc1ccc(-n2nc(OCCN3CCCCC3)cc2-c2ccccc2)cc1Cl [Example 19, 1-{2-[1-(3,4-Dichlorophenyl)-5-phenyl-1H-pyrazol-3-yloxy]ethyl}piperidine]	80.1%	–
Cc1cc(OCCCCN2CCCC2)nn1-c1ccc(Cl)c(Cl)c1 [Example 23, 1-(3,4-Dichlorophenyl)-5-methyl-3-[4-(pyrrolidin-1-yl)butoxy]-1H-pyrazole]	96.4%	–
CCN(CC)CCCCOc1cc(C)n(-c2ccc(Cl)c(Cl)c2)n1 [Example 27, 4-[1-(3,4-Dichlorophenyl)-5-methyl-1H-pyrazol-3-yloxy]-N,N-diethylbutan-1-amine]	99.2%	–
Cc1cc(OCCCCN2CCc3ccccc3C2)nn1-c1ccc(Cl)c(Cl)c1 [Example 30, 2-{4-[1-(3,4-dichlorophenyl)-5-methyl-1H-pyrazol-3-yloxy]butyl}-1,2,3,4-tetrahydroisoquinoline]	83%	–
CCN(CC)CCOc1cc(C(C)C)n(-c2ccc(Cl)c(Cl)c2)n1 [Example 32, 2-[1-(3,4-Dichlorophenyl)-5-isopropyl-1H-pyrazol-3-yloxy]-N,N-diethylethanamine]	72.7%	–
CC(C)c1cc(OCCN2CCCCC2)nn1-c1ccc(Cl)c(Cl)c1 [Example 35, 1-{2-[1-(3,4-Dichlorophenyl)-5-isopropyl-4H-pyrazol-3-yloxy]ethyl}piperidine]	102%	–
Clc1ccc(-n2ccc(OCCN3CCOCC3)n2)cc1Cl [Example 37, 4-{2-[1-(3,4-dichlorophenyl)-1H-pyrazol-3-yloxy]ethyl}morpholine]	108%	–
CCN(CC)CCOc1ccn(-c2ccc(Cl)c(Cl)c2)n1 [Example 38, 2-[1-(3,4-dichlorophenyl)-1H-pyrazol-3-yloxy]N,N-diethylethanamine]	108%	–
Clc1ccc(-n2ccc(OCCN3CCCC3)n2)cc1Cl [Example 39, 1-(3,4-dichlorophenyl)-3-[2-(pyrrolidin-1-yl)ethoxy]-1H-pyrazole]	110%	–
Clc1ccc(-n2ccc(OCCN3CCCCC3)n2)cc1Cl [Example 40, 1-{2-[1-(3,4-dichlorophenyl)-1H-pyrazol-3-yloxy]ethyl}piperidine]	110%	–
Cc1cc(OCCN2CCOCC2)nn1-c1ccc2ccccc2c1 [Example 61, 4-{2-[5-Methyl-1-(naphthalen-2-yl)-1H-pyrazol-3-yloxy]ethyl}morpholine]	–	93.6%
CCN(CC)CCOc1cc(C)n(-c2ccc3ccccc3c2)n1 [Example 62, N,N-Diethyl-2-[5-methyl-1-(naphthalen-2-yl)-1H-pyrazol-3-yloxy]ethanamine]	69.2%	–

System: not given
Assay: not given
Details: not given

Compound	melting point
COc1ccc(-n2nc(OCCN3CCOCC3)cc2C)cc1.Cl	169 to 173 °C
Cl.Clc1ccc(-n2nc(OCCn3ccnc3)cc2-c2ccccc2)cc1Cl	147 to 155 °C
CCN(CC)CCOc1nn(-c2ccc(Cl)c(Cl)c2)c(C)c1C.Cl	134 to 136 °C
Cc1c(OCCN2CCCC2)nn(-c2ccc(Cl)c(Cl)c2)c1C.Cl	146 to 148 °C
Cc1c(OCCCN2CCCC2)nn(-c2ccc(Cl)c(Cl)c2)c1C.Cl	155 to 157 °C
Cl.Clc1ccc(-n2ccc(OCCCCN3CCOCC3)n2)cc1Cl	165 to 169 °C
C[C@@H]1CN(CCCCOc2ccn(-c3ccc(Cl)c(Cl)c3)n2)C[C@H](C)O1.Cl	149 to 154 °C
Cl.Clc1ccc(-n2ccc(OCCCCN3CCCCC3)n2)cc1Cl	156 to 161 °C
Cl.Clc1ccc(-n2ccc(OCCCCN3CCCC3)n2)cc1Cl	181 to 186 °C
CCN(CC)CCCCOc1ccn(-c2ccc(Cl)c(Cl)c2)n1.O=C(O)C(=O)O	130 to 135 °C
COCCN(C)CCCCOc1ccn(-c2ccc(Cl)c(Cl)c2)n1.O=C(O)C(=O)O	97 to 100 °C
Clc1ccc(-n2ccc(OCCCCN3CCSCC3)n2)cc1Cl.O=C(O)C(=O)O	175 to 177 °C
CC(=O)c1c(OCCN2CCOCC2)nn(-c2ccc(Cl)c(Cl)c2)c1C.O=C(O)C(=O)O	188 to 192 °C
CC(=O)c1c(OCCN2CCCC2)nn(-c2ccc(Cl)c(Cl)c2)c1C.O=C(O)C(=O)O	159 to 162 °C
CC(=O)c1c(OCCN2CCCCC2)nn(-c2ccc(Cl)c(Cl)c2)c1C.O=C(O)C(=O)O	158 to 161 °C
CCN(CC)CCOc1nn(-c2ccc(Cl)c(Cl)c2)c(C)c1C(C)=O.O=C(O)C(=O)O	147 to 149 °C
Clc1ccc(-n2ccc(OCCN3CCOCC3)n2)cc1Cl (as salt: hydrochloride) [Example 37, 4-{2-[1-(3,4-dichlorophenyl)-1H-pyrazol-3-yloxy]ethyl}morpholine]	162 to 166 °C
Clc1ccc(-n2ccc(OCCN3CCCC3)n2)cc1Cl (as salt: hydrochloride) [Example 39, 1-(3,4-dichlorophenyl)-3-[2-(pyrrolidin-1-yl)ethoxy]-1H-pyrazole]	172 to 176 °C
Clc1ccc(-n2ccc(OCCN3CCCCC3)n2)cc1Cl (as salt: hydrochloride) [Example 40, 1-{2-[1-(3,4-dichlorophenyl)-1H-pyrazol-3-yloxy]ethyl}piperidine]	172 to 177 °C
Clc1ccc(-n2ccc(OCCCN3CCCC3)n2)cc1Cl (as salt: hydrochloride) [Example 41, 1-(3,4-dichlorophenyl)-3-[3-(pyrrolidin-1-yl)propoxy]-1H-pyrazole]	156 to 159 °C
Cc1cc(OCCN2CCCC2)nn1-c1ccc(Cl)c(Cl)c1.Cl [Example 3, 1-(3,4-Dichlorophenyl)-5-methyl-3-[2-(pyrrolidin-1-yl)ethoxy]-1H-pyrazole hydrochloride]	> 280 °C (dec.)
Cc1cc(OCCCN2CCCC2)nn1-c1ccc(Cl)c(Cl)c1.Cl [Example 4, 1-(3,4-Dichlorophenyl)-5-methyl-3-[3-(pyrrolidin-1-yl)propoxy]-1H-pyrazole hydrochloride]	149 to 155 °C
Cc1cc(OCCN2CCCCC2)nn1-c1ccc(Cl)c(Cl)c1 [Example 5, 1-{2-[1-(3,4-dichlorophenyl)-5-methyl-1H-pyrazol-3-yloxy]ethyl}piperidine]	119 to 122 °C
Cc1cc(OCCn2ccnc2)nn1-c1ccc(Cl)c(Cl)c1 [Example 6, 1-{2-[1-(3,4-dichlorophenyl)-5-methyl-1H-pyrazol-3-yloxy]ethyl}-1H-imidazole]	111 to 112 °C
Cc1cc(OCCN2CCC(n3cnc4cccnc43)CC2)nn1-c1ccc(Cl)c(Cl)c1 [Example 7, 3-{1-[2-(1-(3,4-Dichlorophenyl)-5-methyl-1H-pyrazol-3-yloxy)ethyl]piperidin-4-yl}-3H-imidazo[4,5-b]pyridine]	104 to 107 °C
Cl.Clc1ccc(-n2nc(OCCN3CCOCC3)cc2-c2ccccc2)cc1Cl [Example 16, 4-{2-[1-(3,4-Dichlorophenyl)-5-phenyl-1H-pyrazol-3-yloxy]ethyl}morpholine hydrochloride]	197 to 207 °C
Cc1c(OCCN2CCCCC2)nn(-c2ccc(Cl)c(Cl)c2)c1C [Example 48, 1-(2-(1-(3,4-Dichlorophenyl)-4,5-dimethyl-1H-pyrazol-3-yloxy)ethyl)piperidine]	64 to 67 °C
